From patent US11976075B2, “Inhibitors of the MYST family of lysine acetyl transferases” (Isosterix, Inc., priority 2022, dated 2024)

What follows are molecules tested against T1, Recombinant KAT6A/MOZ (488-778) protein (Homo sapiens, UniProt Q92794) (assay: Kat6a AlphaLISA Inhibition Screening Assay). Conditions: 10′ pre-incubation; Table 3; read-out: Kat6A Biochemical assay: IC50.
T1 construct: Recombinant KAT6A/MOZ (488-778) protein (Active motif, Catalog #81223); purchased Active Motif 81223
T1 sequence (Q92794 488-778): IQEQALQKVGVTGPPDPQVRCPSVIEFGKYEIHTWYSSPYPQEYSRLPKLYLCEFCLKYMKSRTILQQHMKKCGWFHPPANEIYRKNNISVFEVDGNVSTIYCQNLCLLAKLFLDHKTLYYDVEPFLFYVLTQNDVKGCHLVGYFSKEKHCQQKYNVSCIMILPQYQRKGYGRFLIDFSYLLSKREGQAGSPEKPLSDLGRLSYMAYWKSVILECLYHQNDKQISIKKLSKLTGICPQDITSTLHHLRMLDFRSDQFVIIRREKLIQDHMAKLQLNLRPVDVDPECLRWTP
Format: biochemical
How it was run: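 Recombinant KAT6A (488-778), 25 nM, was preincubated with compound (10-point dose response) for 60 or 10 min. It then reacted 120 min at room temperature with 200 nM biotin-H3(1-21) peptide and 400 nM acetyl-CoA, pH 8.0, with 330 nM TSA present. Acetylation was detected by AlphaLISA (anti-acetyl-lysine acceptor, streptavidin donor beads).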

First: COc1cc(Cn2cccn2)cc2c1c(NS(=O)(=O)CC1CCCCC1)nn2C [compound 121, N-(6-((1H-pyrazol-1-yl)methyl)-4-methoxy-1-methyl-1H-indazol-3-yl)-1-cyclohexylmethanesulfonamide]
Second: COc1cc(Cn2cccn2)cc2c1c(NS(=O)(=O)c1ccccc1F)nn2C [compound 122, N-(6-((1H-pyrazol-1-yl)methyl)-4-methoxy-1-methyl-1H-indazol-3-yl)-2-fluorobenzenesulfonamide]
The IC50 of the first is lower: 10 to 20 µM for the first, 20 to 50 µM for the second. The first is the more potent here.

`COc1cccc(OC)c1S(=O)(=O)Nc1nn(C)c2cc(Cn3cccn3)cc(OC)c12` [compound 123, N-(6-((1H-pyrazol-1-yl)methyl)-4-methoxy-1-methyl-1H-indazol-3-yl)-2,6-dimethoxybenzenesulfonamide] and `COc1cccc(OC)c1S(=O)(=O)Nc1n[nH]c2cc(Cn3cccn3)cc(OC)c12` [compound 125, N-(6-((1H-pyrazol-1-yl)methyl)-4-methoxy-1H-indazol-3-yl)-2,6-dimethoxybenzenesulfonamide] cannot be ordered by IC50: 10 to 20 µM for the first, at most 10 µM for the second.

For `COc1cc(Cn2cccn2)cc2[nH]nc(NS(=O)(=O)c3ccccc3F)c12` [compound 124, N-(6-((1H-pyrazol-1-yl)methyl)-4-methoxy-1H-indazol-3-yl)-2-fluorobenzenesulfonamide], the IC50 was 20 to 50 µM.

Same assay, conditions: 60′ pre-incubation; Table 3; read-out: Kat6A Biochemical assay: IC50

`C#CC(=O)N1CCC(c2ccnc(-c3cc(C)cc(C(=O)NNS(=O)(=O)c4ccccc4F)c3)c2)C1` (stereo not drawn) [compound 92, 2-fluoro-N′-(3-methyl-5-(4-(1-propioloylpyrrolidin-3-yl)pyridin-2-yl)benzoyl)benzenesulfonohydrazide] and `C#CC(=O)N1CCN(c2ccnc(-c3cc(C)cc(C(=O)NNS(=O)(=O)c4ccccc4F)c3)c2)CC1` [compound 103, 2-fluoro-N′-(3-methyl-5-(4-(4-propioloylpiperazin-1-yl)pyridin-2-yl)benzoyl) benzenesulfonohydrazide] cannot be ordered by IC50: at most 10 µM for the first, at most 10 µM for the second.

`C=CS(=O)(=O)NCC(=O)NCc1cnn(Cc2cc(OC)c3c(NS(=O)(=O)c4cc(CC)ccc4OC)noc3c2)c1` [compound 93, N-((1-((3-((5-ethyl-2-methoxyphenyl)sulfonamido)-4-methoxybenzo[d]isoxazol-6-yl)methyl)-1H-pyrazol-4-yl)methyl)-2-(vinylsulfonamido) acetamide] and `CCc1ccc(OC)c(S(=O)(=O)Nc2noc3cc(Cn4cc(CNS(C)(=O)=O)cn4)cc(OC)c23)c1` [compound 116] cannot be ordered by IC50: at most 10 µM for the first, at most 10 µM for the second.

`C#CC(=O)NCCNC(=O)c1cnn(Cc2cc(OC)c3c(NS(=O)(=O)c4cc(CC)ccc4OC)noc3c2)c1` [compound 94, 1-((3-((5-ethyl-2-methoxyphenyl)sulfonamido)-4-methoxybenzo[d]isoxazol-6-yl)methyl)-N-(2-propiolamidoethyl)-1H-pyrazole-4-carboxamide] and `C#CC(=O)N1CCN(C(=O)c2cnn(Cc3cc(OC)c4c(NS(=O)(=O)c5cc(CC)ccc5OC)noc4c3)c2)CC1` [compound 95, 5-ethyl-2-methoxy-N-(4-methoxy-6-((4-(4-propioloylpiperazine-1-carbonyl)-1H-pyrazol-1-yl)methyl)benzo[d]isoxazol-3-yl)benzenesulfonamide] cannot be ordered by IC50: at most 10 µM for the first, at most 10 µM for the second.

`C#CC(=O)N1CCN(c2cccc(-c3cc(OC)c4c(NS(=O)(=O)c5c(OC)cccc5OC)noc4c3)n2)CC1` [compound 96, 2,6-dimethoxy-N-(4-methoxy-6-(6-(4-propioloylpiperazin-1-yl)pyridin-2-yl)benzo[d]isoxazol-3-yl)benzenesulfonamide] and `C#CC(=O)N1CCN(c2nc(-c3cc(OC)c4c(NS(=O)(=O)c5c(OC)cccc5OC)noc4c3)cs2)CC1` [compound 97, 2,6-dimethoxy-N-(4-methoxy-6-(2-(4-propioloylpiperazin-1-yl)thiazol-4-yl)benzo[d]isoxazol-3-yl)benzenesulfonamide] cannot be ordered by IC50: at most 10 µM for the first, at most 10 µM for the second.

`C#CC(=O)N1CCN(c2cccc(-c3cc(OC)c4c(NS(=O)(=O)c5cc(CC)ccc5OC)noc4c3)c2)CC1` [compound 98, 5-ethyl-2-methoxy-N-(4-methoxy-6-(3-(4-propioloylpiperazin-1-yl)phenyl)benzo[d]isoxazol-3-yl) benzenesulfonamide] and `C#CC(=O)N1CCN(c2cccc(-c3cc(OC)c4c(NS(=O)(=O)c5cc(CC)ccc5OC)noc4n3)c2)CC1` [compound 114, 25-ethyl-2-methoxy-N-(4-methoxy-6-(3-(4-propioloylpiperazin-1-yl)phenyl)isoxazolo[5,4-b]pyridin-3-yl)benzenesulfonamide] cannot be ordered by IC50: at most 10 µM for the first, over 10 µM for the second.

`C#CC(=O)N1Cc2cnn(Cc3cc(OC)c4c(NS(=O)(=O)c5cc(CC)ccc5OC)noc4c3)c2C1` [compound 99, 5-ethyl-2-methoxy-N-(4-methoxy-6-((5-propioloyl-5,6-dihydropyrrolo[3,4-c]pyrazol-1(4H)-yl)methyl)benzo[d]isoxazol-3-yl)benzenesulfonamide] and `C#CC(=O)N1CC[C@H](OCc2cc(OC)c3c(NS(=O)(=O)c4cc(CC)ccc4OC)noc3c2)C1` [compound 109, (S)-5-ethyl-2-methoxy-N-(4-methoxy-6-(((1-propioloylpyrrolidin-3-yl)oxy)methyl)benzo[d]isoxazol-3-yl) benzenesulfonamide] cannot be ordered by IC50: at most 10 µM for the first, at most 10 µM for the second.

`C#CC(=O)N1CCCN(c2cccc(-c3cc(OC)c4c(NS(=O)(=O)c5c(OC)cccc5OC)noc4c3)c2)CC1` [compound 100, 2,6-dimethoxy-N-(4-methoxy-6-(3-(4-propioloyl-1,4-diazepan-1-yl)phenyl)benzo[d]isoxazol-3-yl)benzenesulfonamide] and `C#CC(=O)N1CCN(c2cc(O)cc(-c3cc(OC)c4c(NS(=O)(=O)c5c(OC)cccc5OC)noc4c3)c2)CC1` [compound 115, N-(6-(3-hydroxy-5-(4-propioloylpiperazin-1-yl)phenyl)-4-methoxybenzo[d]isoxazol-3-yl)-2,6-dimethoxybenzenesulfonamide] cannot be ordered by IC50: at most 10 µM for the first, at most 10 µM for the second.

`C#CC(=O)N1CCC(c2cccc(-c3cc(OC)c4c(NS(=O)(=O)c5c(OC)cccc5OC)noc4c3)c2)CC1` [compound 101, 2,6-dimethoxy-N-(4-methoxy-6-(3-(1-propioloylpiperidin-4-yl)phenyl)benzo[d]isoxazol-3-yl) benzenesulfonamide] and `C#CC(=O)N1CCN(c2ccnc(-c3cc(OC)c4c(NS(=O)(=O)c5c(OC)cccc5OC)noc4c3)c2)CC1` [compound 119, 2,6-dimethoxy-N-(4-methoxy-6-(4-(4-propioloylpiperazin-1-yl)pyridin-2-yl)benzo[d]isoxazol-3-yl)benzenesulfonamide] cannot be ordered by IC50: at most 10 µM for the first, at most 10 µM for the second.

`C#CC(=O)N1CCN(c2cnc(-c3cc(OC)c4c(NS(=O)(=O)c5c(OC)cccc5OC)noc4c3)s2)CC1` [compound 102, 2,6-dimethoxy-N-(4-methoxy-6-(5-(4-propioloylpiperazin-1-yl)thiazol-2-yl)benzo[d]isoxazol-3-yl)benzenesulfonamide] and `C#CC(=O)N1CCN(c2ncc(-c3cc(OC)c4c(NS(=O)(=O)c5c(OC)cccc5OC)noc4c3)s2)CC1` [compound 106, 2,6-dimethoxy-N-(4-methoxy-6-(2-(4-propioloylpiperazin-1-yl)thiazol-5-yl)benzo[d]isoxazol-3-yl) benzenesulfonamide] cannot be ordered by IC50: at most 10 µM for the first, at most 10 µM for the second.

`C#CC(=O)N1CCCN(c2cnc(-c3cc(OC)c4c(NS(=O)(=O)c5cc(CC)ccc5OC)noc4c3)s2)CC1` [compound 104, 5-ethyl-2-methoxy-N-(4-methoxy-6-(5-(4-propioloyl-1,4-diazepan-1-yl)thiazol-2-yl)benzo[d]isoxazol-3-yl) benzenesulfonamide] and `C#CC(=O)N1CCN(c2csc(-c3cc(OC)c4c(NS(=O)(=O)c5c(OC)cccc5OC)noc4c3)n2)CC1` [compound 118, 2,6-dimethoxy-N-(4-methoxy-6-(4-(4-propioloylpiperazin-1-yl)thiazol-2-yl)benzo[d]isoxazol-3-yl)benzenesulfonamide] cannot be ordered by IC50: at most 10 µM for the first, at most 10 µM for the second.

`C=CS(=O)(=O)NCCOCc1cc(OC)c2c(NS(=O)(=O)c3cc(CC)ccc3OC)noc2c1` [compound 107] and `C#CC(=O)N1CC[C@@H](OCc2cc(OC)c3c(NS(=O)(=O)c4cc(CC)ccc4OC)noc3c2)C1` [compound 110, (R)-5-ethyl-2-methoxy-N-(4-methoxy-6-(((1-propioloylpyrrolidin-3-yl)oxy)methyl)benzo[d]isoxazol-3-yl) benzenesulfonamide] cannot be ordered by IC50: at most 10 µM for the first, at most 10 µM for the second.

`CCS(=O)(=O)NCc1cnn(Cc2cc(OC)c3c(NS(=O)(=O)c4c(OC)cccc4OC)noc3c2)c1` [compound 108] and `C#CC(=O)N1CCN(c2cccc(-c3cc(OC)c4c(NS(=O)(=O)c5c(OC)cccc5OC)noc4n3)c2)CC1` [compound 113, 2,6-dimethoxy-N-(4-methoxy-6-(3-(4-propioloylpiperazin-1-yl)phenyl)isoxazolo[5,4-b]pyridin-3-yl)benzenesulfonamide] cannot be ordered by IC50: at most 10 µM for the first, at most 10 µM for the second.

`C#CC(=O)N1CCN(c2cccc(-c3cc(OC)c4c(NS(=O)(=O)NC5CCCCC5)noc4c3)c2)CC1` [compound 111] and `C#CC(=O)N1CCN(c2cccc(-c3cc(OC)c4c(NS(=O)(=O)CC5CCCCC5)noc4c3)c2)CC1` [compound 117, 1-cyclohexyl-N-(4-methoxy-6-(3-(4-propioloylpiperazin-1-yl)phenyl)benzo[d]isoxazol-3-yl) methanesulfonamide] cannot be ordered by IC50: at most 10 µM for the first, at most 10 µM for the second.

`C#CC(=O)N1CCN(c2cccc(-c3cc(OC)c4c(NS(=O)(=O)N(C)C5CCCCC5)noc4c3)c2)CC1` [compound 112, 3-[[cyclohexyl(methyl)sulfamoyl]amino]-4-methoxy-6-[3-(4-prop-2-ynoylpiperazin-1-yl)phenyl]-1,2-benzoxazole] and `C#CC(=O)N1CCN(c2cccc(-c3cc4onc(NS(=O)(=O)c5c(OC)cccc5OC)c4cc3C)c2)CC1` [compound 120, 2,6-dimethoxy-N-(5-methyl-6-(3-(4-propioloylpiperazin-1-yl)phenyl)benzo[d]isoxazol-3-yl) benzenesulfonamide] cannot be ordered by IC50: at most 10 µM for the first, at most 10 µM for the second.
